According to patent publication US20080280890A1, “HYDROXYLAMINE COMPOUNDS AND METHODS OF THEIR USE” (priority 2007, published 2008):
Counter-ions that a name gives are not always drawn.

Tests used:
[1] = tested on: Human neuroblastoma SKN-SH cells, resistant to doxorubicin; assay: Chemoresistance: cancer cell viability (MTT) in presence or absence of doxorubicin; type: cell-based; details: compound 50 ug/mL, MTT
Text: A method for evaluating a compound's propensity to overcome cancer cell chemoresistance is described in “Caspase Inhibition Switches Doxorubicin-Induced Apoptosis To Senescence”, Abdelhadi Rebbaa, Xin Zheng, Pauline M Chou and Bernard L Mirkin, Oncogene (2003) 22, 2805-2811. Resistant human cancer cells to doxorubicin were selected by stepwise exposure to drug concentrations ranging from 10^−9 M-10^−6 M over 3 months. They were then subjected to treatment with the doxorubicin alone or in combination with hydroxylamine compounds 1-12, 16, 20, and 21 (Table 4). The cells were incubated with the drugs for 72 hours, and cell viability was measured by the MTT assay. Additionally, molecular pathways that might be associated with increased chemo-responsiveness with these compounds were investigated. p Cancer Cell Viability Data for certain hydroxylamines in the presence or absence of Doxorubicin is listed in Table 4.
A method for evaluating a compound's propensity to overcome cancer cell chemoresistance is described in “Caspase Inhibition Switches Doxorubicin-Induced Apoptosis To Senescence”, Abdelhadi Rebbaa, Xin Zheng, Pauline M Chou and Bernard L Mirkin, Oncogene (2003) 22, 2805-2811. Human neuroblastoma SKN-SH cells (ATCC Cat. No. HTB-11) were cultured in Dulbecco's Modified Eagles Medium (DMEM; Gibco, Grand Island, N.Y.) supplemented with 10% fetal bovine serum (FBS; Sigma-Aldrich, St. Louis, Mo.) at 37° C. in a 95% Air/5% CO2 atmosphere. Resistant human cancer cells to doxorubicin were selected by stepwise exposure to drug concentrations ranging from 10^−9M-10^−6M over 3 months. They were then subjected to treatment with the doxorubicin alone or in combination with hydroxylamine compounds. The cells were incubated with the drugs for 72 hours, and cell viability was measured by the MTT assay. This consists of adding 10 μl/well of MTT (5 mg/ml solution) and incubation for 4 h at 37° C. The precipitate formed is then solubilized by addition of 100 μl of HCL 0.5 N/Isopropanol and incubation for 15 hours at 37° C. The optical density is measured at 570 nm and cell survival is estimated by comparison to untreated cells. Each point represents 4 wells data represent average ± SE. Additionally, molecular pathways that might be associated with increased chemo-responsiveness with these compounds were investigated.
Cytotoxic activity of doxorubicin and hydroxylamine analogs were quantitatively determined by a colorimetric assay utilizing 3-(4,5-dimethyl-2-thiazolyl) 2,5-diphenyl tetrazolium bromide (MTT; Sigma-Aldrich, St. Louis, Mo.). Briefly, cells were seeded at 10^4 cells/well in 96-well plates and maintained in culture for 24 hours at 37° C. in DMEM supplemented with 10% FBS. Drugs were added to designated wells and cells were incubated for […], following which MTT (10 μL of 5 mg/ml solution) was added to each 100 μl well and incubated for 4 hours at 37° C. The cells were solubilized by incubation with 100 μl of HCl 0.5N in isopropanol for 15 hours at 37° C. The optical density of this solution was measured at 570 nm and the percentage of viable cells estimated by comparison with untreated control cells.

[2] = tested on: Angiogenesis in CAM model; assay: Neovascularization on the CAM (chick chorioallantoic membrane model of angiogenesis); type: in vivo, chicken; details: for Percent inhibition of angiogenesis in CAM model at 30 ug: unit assumed
Protocol: In vivo neovascularization was examined by the method previously described by Auerbach et al. (J. Dev. Biol. 41:391-394 (1974)). Ten-day old chicken embryos were purchased from Spafas, Inc. (Preston, Conn.) and were incubated at 37° C. with 55% relative humidity. In the dark, with the aid of a candling lamp, a small hole was punctured in the shell concealing the air sac with a hypodermic needle. A second hole was punctured in the shell on the broadside of the egg directly over an […] portion of the embryonic membrane, as observed during candling. An artificial air sac was created beneath the second hole by applying gentle vacuum to the first hole using a small rubber squeeze bulb. The vacuum caused the chorioallantoic membrane (CAM) to separate from the shell.
A window, approximately 1.0 cm^2, was cut in the shell over the dropped CAM with the use of a small crafts grinding wheel (Dremel, Division of Emerson Electric Company Racine, Wis.). The window allowed direct access to the underlying CAM.
A pro-angiogenic agent was added to induce new blood vessel branches on the CAM of 10-day old embryos. Filter disks of #1 filter paper (Whatman International, United Kingdom) were punched using a small puncher and were soaked in 3 mg/mL cortisone acetate (Sigma, St. Louis, Mo.) in a solution (95% ethanol and water). The disks were subsequently air dried under sterile conditions. The disks were then suspended in PBS (Phosphate Buffered Saline) and placed on growing CAMs. Filters treated with TP-H (TEMPOL-H) or TEMPOL and/or H2O2 or TP-H and/or bFGF or VEGF were placed on the first day of the 3-day incubation.
For inducing angiogenesis, sterile filter disks were saturated with bFGF (1 μg/ml) (Life Technologies, Gaithersburg, Md.) or other pro-angiogenesis factors and control disks were saturated with PBS without Calcium and Magnesium. […]
Using sterile forceps one filter/CAM was placed from the window. The window was sealed with Highland brand transparent tape.
After 24-48 hr, 10-25 ul of test agent was injected intravenously or added topically into the CAM membrane. Eight-Ten eggs/treatment group were used.
CAM tissue directly beneath filter disk was harvested from embryos treated 48 hours prior with compound or control. Tissues were washed three times with PBS. Sections were placed in a 35-mm petri dish (Nalge Nunc, Rochester, N.Y.) and examined under a SV6 stereomicroscope (Karl Zeiss, Thornwood, N.Y.) at 50× magnification.
CAM sections from Petri dish were examined using SV6 stereomicroscope (Karl Zeiss) at 50× magnification. Digital images of CAM sections from Petri dish were collected using a 3-CCD color video camera system (Toshiba America, New York, N.Y.). These images were analyzed using Image-Pro Plus software (Media Cybernetics, Silver Spring, Md.).
The number of branch points in blood vessels within the circular region superimposed to the area of a filter disk was counted for each section. After incubation at 37° C. with 55% relative humidity for 3 days, the CAM tissue directly beneath each filter disk was resected from control and treated CAM samples. Tissues were washed three times with PBS. Sections were placed in a 35-mm Petri dish (Nalge Nunc; Rochester, N.Y.) and were examined under a SV6 stereomicroscope (Karl Zeiss; Thornwood, N.Y.) at 50× magnification. Digital images of CAM sections adjacent to filters were collected using a 3-CCD color video camera system (Toshiba America; New York, N.Y.) and analyzed with the Image-Pro Plus software (Media Cybernetics; Silver Spring, Md.).
The number of vessel branch points contained in a circular region equal to the area of a filter disk was counted for each section. Percent inhibition data are expressed as the quotient of the experimental value minus the negative control value divided by the difference between the positive control value and the negative control value. […]

| Molecule | Mean OD (×10^−3), cancer cell viability ([1]; Dox. 10^−6 M present (+)) | Mean OD (×10^−3), cancer cell viability ([1]; Dox. absent (−)) | Percent inhibition of angiogenesis in CAM model at 30 ug ([2]; 30 ug) [%] | inhibition in vivo at 0.3 mg ([2]; Gallus gallus, 300 ug) [%] | CAM data % Inhibition ([2]; 300 ug) [%] | inhibition in vivo at 0.03 mg ([2]; Gallus gallus, 30 ug) [%] |
| --- | --- | --- | --- | --- | --- | --- |
| CC1(C)CC(Oc2nsnc2N2CCN(c3ccccc3)CC2)CC(C)(C)N1O.Cl.Cl [Compound 53, 4-(4-phenylpiperazin-1-yl)-3-[(2,2,6,6-tetramethyl-1-hydroxypiperidinyl)-4-oxy]-1,2,5-thiadiazole] | 170.00 ×10^−3 | 1333.75 ×10^−3 |  |  |  |  |
| COc1cc(COC2CC(C)(C)N(O)C(C)(C)C2)cc(OC)c1OC.Cl [Compound 48, 1-Hydroxyl-4-(3,4,5-trimethoxybenzyloxy)-2,2,6,6-tetramethylpiperidine] | 50.67 ×10^−3 | 1118.00 ×10^−3 |  |  |  |  |
| CC1(C)CC(c2nn[nH]n2)CC(C)(C)N1O.Cl [Compound 30, 1-hydroxy-2,2,6,6-tetramethyl-4-(2H-tetrazol-5-yl)piperidine] | 310.00 ×10^−3 | 1301.25 ×10^−3 | 90.4 |  |  |  |
| COc1cc(C2=CC(C)(C)N(O)C(C)(C)C2)cc(OC)c1OC.Cl [Compound 50, 1-Hydroxy-2,3,6-trihydro-4-(3,4,5-trimethoxyphenyl)-2,2,6,6-tetramethylpiperidine] | 54.50 ×10^−3 | 1226.33 ×10^−3 | 92.3 |  |  |  |
| CC1(C)CC(CO)CC(C)(C)N1O.Cl [Compound 34, (1-hydroxy-2,2,6,6-tetramethylpiperidin-4-yl)methanol] | 302.75 ×10^−3 | 1168.25 ×10^−3 |  |  |  |  |
| CC1(C)CC(=CC(=O)N2CCN(c3ccccc3)CC2)CC(C)(C)N1O [Compound 56] | 308.75 ×10^−3 | 1153.00 ×10^−3 | 66.1 |  |  |  |
| O=C1O[C@H]([C@@H](O)CO)C(O)=C1O [Vitamin C, reference compound] |  |  |  | 15 ± 7 |  |  |
| Vitamin E [reference compound] |  |  |  |  | 22 ± 6 |  |
| CC1(C)CC(Oc2nsnc2Cl)CC(C)(C)N1O.Cl [Compound 13, 4-(4-chloro-1,2,5-thiadiazol-3-yloxyl)-1-hydroxyl-2,2,6,6-tetramethylpiperidine] |  |  | 51.2 |  |  |  |
| CC(C)c1nsnc1OCC1=CC(C)(C)N(O)C1(C)C [Compound 51] | 71.00 ×10^−3 | 1208.25 ×10^−3 | 43 |  |  |  |
| CN1CCN(c2nsnc2OC2CC(C)(C)N(O)C(C)(C)C2)CC1 [Compound 52] | 195.00 ×10^−3 | 1186.33 ×10^−3 | 68.3 |  |  |  |
| CC1(C)CC(NC(=O)CCN2CCOCC2)CC(C)(C)N1O.Cl [Compound 26, N-(1-hydroxy-2,2,6,6-tetramethylpiperidin-4-yl)-3-morpholinopropanamide] | 261.50 ×10^−3 | 1056.33 ×10^−3 | 72 |  |  |  |
| CC1(C)C=C(CC2CNCCO2)C(C)(C)N1O.Cl.Cl (centres unmarked) [Compound 36] | 297.00 ×10^−3 | 1110.75 ×10^−3 |  |  |  |  |
| CC1(C)C(CO)=C(c2ccc(F)cc2)C(C)(C)N1O.Cl [Compound 59, (4-(4-fluorophenyl)-1-hydroxy-2,5-dihydro-2,2,5,5-tetramethyl-1H-pyrrol-3-yl)methanol] | 352.00 ×10^−3 | 1105.00 ×10^−3 | 53 |  |  |  |
| CC1(C)CC(Oc2nsnc2N2CCOCC2)C(C)(C)N1O.Cl (centres unmarked) [Compound 32, 4-(4-(1-hydroxy-2,2,5,5-tetramethylpyrrolidin-3-yloxy)-1,2,5-thiadiazol-3-yl)morpholine] | 231.50 ×10^−3 | 985.67 ×10^−3 |  |  |  |  |
| 1-Hydroxy-4-(4-Flurophenyl)-2,2,6,6-tetramethylpiperidine [Compound 62] | 40.25 ×10^−3 | 184.75 ×10^−3 | 43.8 |  |  |  |
| CC1(C)CC(NC(=O)C2CC2)CC(C)(C)N1O.Cl [Compound 31, N-(1-hydroxy-2,2,6,6-tetramethylpiperidin-4-yl)cyclopropanecarboxamide] | 322.25 ×10^−3 | 1175.25 ×10^−3 | 38.8 |  |  |  |
| CC1(C)CC(NC(=O)CCCCC2CCSS2)CC(C)(C)N1O (centres unmarked) [Compound 49, 5-(1,2-dithialan-3-yl)-N-(1-hydroxy-2,2,6,6-tetramethylpiperidin-4-yl)pentanamide] | 195.00 ×10^−3 | 1330.25 ×10^−3 |  |  |  |  |
| CC1(C)CC(=O)C(C)(C)N1O.Cl [Compound 37, 1-hydroxy-2,2,5,5-tetramethylpyrrolidin-3-one] | 366.25 ×10^−3 | 1329.75 ×10^−3 |  |  |  |  |
| CC1(C)CC(NC(=O)C2CC2)C(C)(C)N1O.Cl (centres unmarked) [Compound 38, N-(1-hydroxy-2,2,5,5-tetramethylpyrrolidin-3-yl)cyclopropanecarboxamide] | 378.50 ×10^−3 | 1202.75 ×10^−3 |  |  |  |  |
| CC1(C)CC(O)CC(C)(C)N1O [TEMPOL-H HCl, 2,2,6,6-tetramethylpiperidine-1,4-diol, reference compound] |  |  |  |  |  | 43 ± 10 |
